pIC50: −log10 of the molar value. Converted amounts (≈) assume the structure as drawn.
Experiments:
MDA-MB-231 [1] = assay: Antitumor activity against human MDA-MB-231 cells xenografted in triple-negative breast cancer xenograft model assessed as tumor growth inhibition at 15 mg/kg relative to control; assay type: functional; conditions: read-out: TGI
MDA-MB-231 [2] = assay: Antitumor activity against human MDA-MB-231 cells xenografted in triple-negative breast cancer xenograft model assessed as tumor growth inhibition at 30 mg/kg relative to control; assay type: functional; conditions: read-out: TGI
B16 = assay: Cytotoxicity against mouse B16 cells; assay type: functional, cell-based
Staphylococcus aureus [3] = assay: Potentiation of gentamicin-induced antibiofilm activity against Staphylococcus aureus assessed as disruption of preformed biofilm by measuring fold increase in gentamicin activity; assay type: functional
Staphylococcus aureus [4] = assay: Potentiation of vancomycin-induced antibiofilm activity against Staphylococcus aureus assessed as disruption of preformed biofilm by measuring fold increase in vancomycin activity; assay type: functional
HCT-116 = assay: Antiproliferative activity against human HCT-116 cells
Staphylococcus sp. = assay: Antibacterial activity against Staphylococcus species; assay type: functional
Acinetobacter = assay: Antibacterial activity against Acinetobacter; assay type: functional

## CC(C)C[C@@H](CO)N1CCc2c(oc3c2C(=O)C(=O)c2ccccc2-3)C1
MDA-MB-231 [1]
  inhibition in vivo at 15 mg/kg: 42.2%
MDA-MB-231 [2]
  inhibition in vivo at 30 mg/kg: 60.4%

## COC[C@@H](OC)C(=O)O[C@H](CC[C@H](C)[C@H](C[C@@H]1OC(=O)C[C@@H](O)C/C=C/C(=O)[C@H](C)[C@H](OC)c2coc(n2)-c2coc(n2)-c2coc(n2)/C=C\C[C@H](OC)[C@H]1C)OC)[C@H](C)[C@H](OC(C)=O)[C@H](C)/C=C/N(C)C=O
B16
  pIC50: 9.30

## CC(=O)[C@H](C)C[C@@H](C)C[C@H](C)C(=O)C1=C(O)/C(=C/c2ccccc2)NC1=O
Staphylococcus aureus [3]
  fold change (FC): 115
Staphylococcus aureus [4]
  fold change (FC): 31

## COc1ccc2cc(NC(=O)C3=NO[C@H]4[C@H](O)C=C[C@@H](Cl)[C@@]4(O)C3)c(=O)oc2c1OC [TRICHODERMAMIDE B]
HCT-116
  pIC50: 6.92

## C#CC[C@H](NC(=O)c1ccc(NC(=O)c2ccc(C#N)cc2)cc1)C(=O)Nc1ccc(C(=O)Nc2ccc(C(=O)Nc3ccc(C(=O)O)cc3)c(O)c2OC(C)C)cc1
Staphylococcus sp.
  MIC: 0.06 mg/L (≈ 0.0757 µM)
Acinetobacter
  MIC: 0.06 mg/L (≈ 0.0757 µM)

— ChEMBL document CHEMBL6083295, “Natural Products Driven Medicinal Chemistry” (J Med Chem, 2024)
